According to patent publication EP0364819A2, “LHRH analogs” (The Administrators of The Tulane Educational Fund, priority 1988, dated 1990):

Legend:
[1] = tested on: dispersed rat pituitary cell superfusion system; assay: LH release in dispersed rat pituitary cell superfusion system (LHRH agonistic activity); assay type: cell-based; conditions: peptide infused for 3 minutes at various concentration; LH released compared to that released by 3 nM LHRH
Procedure: The ability of compounds to influence LH release in vitro is assayed by using a superfused rat pituitary cell system [S. Vigh and A. V. Schally, Peptides, 5 Suppl.
The peptide was infused for 3 minutes at various concentration, and the amount of LH released was compared to that released by 3 nM LHRH.

[2] = biological target: T1, membrane receptors of human breast cancer cells (Homo sapiens, UniProt P30968); assay: Receptor binding to human breast cancer cell membranes with 125I-labeled [D-Trp6]LHRH; conditions: high affinity binding sites, ¹²⁵l-labeled [D-Trp⁶]LHRH
T1 construct: human prostate and breast cancer cell membranes; endogenous in cells
T1 sequence (P30968 1-328): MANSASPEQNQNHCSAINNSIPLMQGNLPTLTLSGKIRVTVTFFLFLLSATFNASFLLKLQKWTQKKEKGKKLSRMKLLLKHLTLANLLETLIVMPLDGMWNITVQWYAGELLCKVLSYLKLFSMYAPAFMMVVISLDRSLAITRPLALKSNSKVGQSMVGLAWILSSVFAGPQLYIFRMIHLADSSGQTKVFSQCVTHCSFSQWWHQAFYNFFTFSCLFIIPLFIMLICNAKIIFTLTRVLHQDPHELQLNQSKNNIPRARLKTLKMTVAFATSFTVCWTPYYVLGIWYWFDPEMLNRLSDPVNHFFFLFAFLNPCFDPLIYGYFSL
Procedure: (c)Affinity for peptides to human prostate and breast cancer cell membranes.
(§1) This is determined by using labelled LHRH and [D-Trp⁶]LHRH. The assay is carried out similarly to that described by T. Kadar et al., Proc. Natl. Acad. Sci. USA, 85, 890-894 (1988).
(§2) Table 2 presents the antiovulatory activity of the claimed compounds having LHRH-inhibiting properties. The inhibitory action was determined in vivo, in 4-day cycling rats as described [A. Corbin and C. W. Beattie, Endocr. Res. Commun., 2, 1-23 (1975)]. Affinities of the claimed compounds to membrane receptors of rat pituitary and human breast cancer cells are also given in Tables 1 and 2 as determined by using [[…],D-Trp⁶]LHRH.

[3] = biological target: T2, membrane receptors of rat pituitary (Rattus norvegicus, UniProt P30969); assay: Receptor binding to rat pituitary membranes with 125I-labeled [D-Trp6]LHRH; conditions: high affinity binding sites, pituitary of male rats, ¹²⁵l-labeled [D-Trp⁶]LHRH
T2 construct: membrane receptors of rat pituitary; from tissue; host or cells: rat pituitary membranes
T2 sequence (P30969 1-327): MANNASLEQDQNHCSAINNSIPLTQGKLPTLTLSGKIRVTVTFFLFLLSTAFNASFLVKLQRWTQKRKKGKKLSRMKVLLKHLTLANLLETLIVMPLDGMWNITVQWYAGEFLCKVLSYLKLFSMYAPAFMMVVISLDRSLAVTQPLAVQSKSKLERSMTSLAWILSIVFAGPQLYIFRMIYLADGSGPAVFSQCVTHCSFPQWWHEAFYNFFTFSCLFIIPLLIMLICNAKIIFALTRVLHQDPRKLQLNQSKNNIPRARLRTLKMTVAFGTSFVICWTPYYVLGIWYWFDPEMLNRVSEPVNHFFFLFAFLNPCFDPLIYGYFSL
Procedure: as §1, §2

[4] = tested on: 4-day cycling rats; assay: In vivo antiovulatory activity in 4-day cycling rats; conditions: 4-day cyclic rats
Procedure: This activity of the peptides is determined in 4-day-cycling rats as described [A. Corbin and C. W.Beattie, Endocr. Res. Commun. 2, 1-23(1975)].
as §2

[5] = Table 2, antagonistic analogues

Substance	Hormonal activity* LH responses rel. to LHRH (= 1) [1]	Binding affinity, Ka1, for membrane receptors of cancer cells ([2]; Table 1, agonistic analogues)	Binding affinity, Ka1, for membrane receptors of pituitary ([3]; Table 1, agonistic analogues)	Binding affinity, Ka1, for membrane receptors of cancer cells [2, 5]	Hormonal activity* %Blockade of ovulation ([4]; Dose 10 µg/rat)	Binding affinity, Ka1, for membrane receptors of pituitary [3, 5]	Hormonal activity* %Blockade of ovulation ([4]; Dose 3 µg/rat)
pGlu-His-Trp-Ser-Tyr-D-Lys[(Cu⁺⁺)(SAL) 2(A₂pr)]-Leu-Arg-Pro-Gly-NH₂ [VIA]	12	1.348 nM⁻¹	3.051 nM⁻¹	–	–	–	–
pGlu-His-Trp-Ser-Tyr-D-Lys[(Ni⁺⁺)(SAL)₂(D-A₂pr)]-Leu-Arg-Pro-Gly-NH₂ [VIIIB]	10	3.334 nM⁻¹	6.457 nM⁻¹	–	–	–	–
Ac-D-Nal(2)-D-Phe(4Cl)-D-Trp-Ser-Arg-D-Lys[(Cu⁺⁺) (POL)₂(DL-A₂pr)]-Leu-Arg-Pro-D-Ala-NH₂ [Example XXIII]	–	–	–	3.408 nM-¹	40%	7.622 nM-¹	–
pGlu-His-Trp-Ser-Tyr-D-Lys[(Cu⁺⁺)(POL)₂(DL-A₂bu)]-Leu-Arg-Pro-Gly-NH₂ [XXV]	5.5	3.141 nM⁻¹	6.405 nM⁻¹	–	–	–	–
pGlu-His-Trp-Ser-Tyr-D-Lys[Cu⁺⁺)(POLP) ₂(A₂pr)]-Leu-Arg-Pro-Gly-NH₂ [XIX]	0.3	4.528 nM⁻¹	8.676 nM⁻¹	–	–	–	–
pGlu-His-Trp-Ser-Tyr-D-Lys[(Cu²²)(CISAL)₂(DL-A₂pr)]-Leu-Arg-Pro-Gly-NH₂ [Example IX]	10	3.995 nM⁻¹	8.625 nM⁻¹	–	–	–	–
pGlu-His-Trp-Ser-Tyr-D-Lys [(Ni⁺⁺)(CISAL)₂(D-A₂pr)]-Leu-Arg-Pro-Gly-NH₂ [Example X]	4	2.236 nM⁻¹	4.513 nM⁻¹	–	–	–	–
Ac-D-Nal(2)-D-Phe(4Cl)-D-Pal(3)-Ser-Arg-D-Lys[(Cu⁺⁺)(POL)₂(DL-A₂pr)]-Leu-Arg-Pro-D-Ala-NH₂ [XXIV]	–	–	–	2.628 nM-¹	–	5.483 nM-¹	50%
Ac-D-Nal(2)-D-Phe(4Cl)-D-Pal(3)-Ser-Arg-D-Lys[(PtCl₂)-A₂bu-Eac)]-Leu-Arg-Pro-D-Ala-NH₂ [XXVII]	–	–	–	2.152 nM-¹	–	–	–
pGlu-His-Trp-Ser-Tyr-D-Lys[(Ni⁺⁺)(SAL) 2(A₂pr)]-Leu-Arg-Pro-Gly-NH₂ [VIIIA]	12	5.234 nM⁻¹	9.710 nM⁻¹	–	–	–	–
